Experimental data as given in patent US20130189246A1, “TREATMENT OF OPHTHALMIC CONDITIONS WITH FLUORENONE DERIVATIVES” (The Trustees of Columbia University in the City of New York, priority 2009, published 2013).

Assays:
[1] = test system: bovine RPE-choroid complex; test: Water transport across ex vivo bovine RPE-choroid complex in Ussing-type chamber; assay type: cell-based
Description: The effect of DPOFA was examined in an ex vivo bovine RPE-choroid complex model.
Ringer's solution contained 120 mM NaCl, 5 mM KCl, 23 mM NaHCO3, 1 mM MgCl2, 1.8 mM CaCl2, 2.0 mM taurine, and 10 mM glucose at pH 7.4. The osmolariy of the solution was 295±5 mOsM. The solution was placed in the cell culture incubator set at 37° C. with 5% CO2. The solution was kept in the incubator for at least 2 says before use. Glutathione at final concentration of 1 mM was added to solutions minutes before the use in water transport experiments.
To prepare 5.5 ml of the 108 mM DPOFA stock solution, 220 mg of DPOFA was weighted. Four milliliters of water was added to the drug followed by addition of 104 microliters of 5M NaCl solution. Small magnetic stirring bar was placed to the drug suspension followed by immersion of the pH electrode. Slow addition of 1N NaOH solution began with careful pH monitoring. NaOH was added until pH reached the 7.2-7.4 range at which point the drug was completely dissolved. pH electrode and magnetic stirring bar were removed, and the volume was adjusted to 5.5 ml. The stock was aliquoted and stored at −20° C. Working DPOFA dilutions were made in Ringer's solution or in PBS.
An Ussing-type chamber was used to assess water transport across tissues preparations. Three hours before the experiment two Ussing-like chambers were assembled and filled with phosphate buffered saline. The cambers were placed on the thermo-jacketed stand to pre-warm the chambers to the 37° C.
Bovine eyes were obtained from the local abattoir and placed to the cold Ringer's solution containing 120 mM NaCl, 5 mM KCl, 23 mM NaHCO3, 1 mM MgCl2, 1.8 mM CaCl2, 2.0 mM taurine, and 10 mM glucose pH 7.4. Eyes were transferred to the lab within 2-3 hours after enucleation and rinsed repeatedly in Ringer's solution. Excessive muscle and connective tissue were trimmed at room temperature. The enucleated eye was dissected at pars plana, and the anterior portion was discarded along with the vitreous. If sensory retina detached during the removal of vitreous, the eye was considered unusable and was discarded. After the removal of vitreous, the posterior portion of the eye with the attached neuroretina was visually examined to locate the area not containing large blood vessels in the sclera. Using a size 13 brass cork bore, the selected area was punched through using a hammer.
The resulting tissue “button” was placed in a Petri dish containing Ringer's solution. The neuroretina was carefully peeled off and discarded. The flat circular sheet of the RPE-choroid tissue was carefully removed with forceps, placed on the flat spoon and transported to the Petri dish where the “basal” round window of the Ussing-type chamber (containing metal mesh) was placed and covered with Ringer's solution. The choroid-RPE circular sheet was placed on the metal mesh of the“basal” window with choroid side down. The RPE side of the RPE-choroid sheet was covered with the nylon mesh shown, followed by clipping with the “apical” portion of the Ussing-type chamber window.
The pre-warmed Ussing-like chambers were removed from the thermo-jacketed stand, freed from the PBS solution, and disassembled. […]
Pre-warmed Ringer's solution was added first to the apical side and then to the basal side of the chamber. The temperature within the chambers was checked and if it reached 35° C., the electrical resistance was measured using the modified electrode and the DVC-1000 Voltage/Current Clamp instrument (WPI, Inc.). […]

[2] = test system: glial cell; settings: central nervous system; reported; cited from earlier work

With `CCC[C@]12CCC(=O)C=C1c1c(cc(OCC(=O)O)c(Cl)c1Cl)C2` [DPOFA, [(R)-(+)-(5,6-dichloro 2,3,9,9a-tetrahydro 3-oxo-9a-propyl-1H-fluoren-7-yl)oxy]acetic acid] as the compound, how does the “stimulation of water transport across the bovine RPE-choroid complex” value ([1]; ex vivo, apical to basal side, overall result) read?
Its value is “stimulated water transport”.

What about the “water transport at 6 μM compared with the higher concentrations” value ([1]; first experiment, FIG. 1, 6 μM vs 20 μM and 60 μM) of the same compound?
The value was “more significant transport of water than 20 μM and 60 μM”.

What about the “transport of water from apical to basal side (upward shift of basal capillary meniscus)” value ([1]; first experiment, FIG. 1, 6 μM, 20 μM, 60 μM DPOFA) of the same compound?
The value was “stimulated significant increase in transport of water”.

And the “movement of water from apical to basal side” value ([1]; second experiment, FIG. 2, 6 μM, 20 μM, 60 μM DPOFA)?
Its value is “increased the movement of water”.

What about the “concentration giving the strongest stimulation of water transport” value ([1]; second experiment, FIG. 2, 6, 20, 60 μM tested) of the same compound?
Its value is 6 µM.

And the “inhibition of glial cell swelling and reactive gliosis” value [2]?
Its value is “effective inhibitor of glial cell swelling and reactive gliosis”.
